# Reference: PMC5827756, “Inhibition of Heat Shock proteins HSP90 and HSP70 induce oxidative stress, suppressing cotton fiber development” (Scientific Reports, 2018)
# Target: T1, human HSP70 (Homo sapiens, UniProt P0DMV8)
# T1 construct: gene HSPA1A
# Experiment: citrate synthase thermoprotection (chaperone) assay, […] nm DTNB
# Format: biochemical
# Conditions: 0.5 µM porcine heart citrate synthase, 1.8 µM HSP, 43 °C, 50 mM HEPES pH 8.0; activity read at 25 °C; inhibitor concentration not stated
# T1 sequence (P0DMV8 2-641): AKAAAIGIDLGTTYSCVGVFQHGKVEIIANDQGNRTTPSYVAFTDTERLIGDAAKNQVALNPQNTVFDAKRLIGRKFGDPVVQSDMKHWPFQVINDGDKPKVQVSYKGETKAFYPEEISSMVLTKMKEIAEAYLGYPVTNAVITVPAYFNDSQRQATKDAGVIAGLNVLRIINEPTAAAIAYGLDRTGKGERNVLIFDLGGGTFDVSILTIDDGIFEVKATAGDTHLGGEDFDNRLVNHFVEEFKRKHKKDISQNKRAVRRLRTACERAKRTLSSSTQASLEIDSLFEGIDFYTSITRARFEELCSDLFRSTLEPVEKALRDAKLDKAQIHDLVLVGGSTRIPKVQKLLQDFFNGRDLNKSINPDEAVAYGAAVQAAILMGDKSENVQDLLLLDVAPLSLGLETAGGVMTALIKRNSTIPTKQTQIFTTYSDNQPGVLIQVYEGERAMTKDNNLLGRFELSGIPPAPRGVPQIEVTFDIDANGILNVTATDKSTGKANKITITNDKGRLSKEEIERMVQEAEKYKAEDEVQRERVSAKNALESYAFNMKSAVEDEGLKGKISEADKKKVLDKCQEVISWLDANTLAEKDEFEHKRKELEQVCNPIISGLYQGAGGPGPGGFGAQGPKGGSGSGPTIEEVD
compound,measurement,value
"NS(=O)(=O)C#Cc1ccccc1 [Pif, pifithrin]","citrate synthase thermoprotection (chaperone) assay, 412 nm DTNB","Similarly, Pif also inhibits thermos-protection by HSP70"
